From patent US8653304B2, “2,3-dihydro-1H-indene-2-yl urea derivative and pharmaceutical application of same” (Toray Industries, Inc., priority 2009, dated 2014)
Counter-ions that a name gives are not always drawn.

Columns and labels:
[1] = system: Human CYP (Cytochrome P450); assay: Metabolic stability in human CYP (human liver microsomes); assay type: in vitro ADME; conditions: human liver microsomes 0.5 mg/mL, NADPH, 37° C., comparative control compounds 5 μM
Method: Each test compound was mixed at a concentration of 2 μM with a phosphate buffer solution containing Human liver microsomes (Xenotech) in an amount of 0.5 mg/mL. Thereafter, NADPH was added thereto, and the obtained mixture was allowed to react at 37° C. for up to 30 minutes. The reaction was terminated by adding acetonitrile, and then the resultant was centrifuged for 10 minutes at 4° C. to collect a supernatant. The supernatant was pretreated by methanol extraction method, and the concentration of the compound was analyzed by LC/MS/MS (ESI positive mode). The compound remaining rate was calculated from the obtained concentration of the compound.

U937 cells = assay: Ability to induce drug-induced phospholipidosis (U937, Nile red, flow cytometer); assay type: cell-based, human; conditions: 48 hours, 20 μM, fluorescence intensity compared to valproic acid 300 μM
Method: The evaluation of Comparative Compound 4c, which was a comparative control compound, was carried out by a method partially modified from the method described in Cell Biology and Toxicology (2003, Vol. 19, pp. 161-176).
Each test compound was mixed with U937 cells, which are a cell line derived from human monocytes, and the cells were cultured in the presence of 5% CO2 at 37° C. for 48 hours. The cell suspension after the culturing was replaced with a PBS solution containing Nile red (Invitrogen) which is a phospholipid staining solution, and the resulting mixture was allowed to react in the dark at room temperature for 10 minutes. After centrifugal washing with PBS solution, the fluorescence intensity was measured with a flow cytometer (Becton Dickinson) (Excitation Wavelength: 488 nm, Detection Region: 515-545 nm). As a negative control substance, valproic acid (300 μM) was used. […] Each test compound was dissolved in DMSO before use, and the resulting solution was added to the cells such that the final concentration of DMSO was 1%.

microsomal CLint at 5 μM [1]: 321 µL/min/mg
Structure (SMILES): Cc1ccc(-n2nc(C(C)(C)C)cc2NC(=O)Nc2ccc(OCCN3CCOCC3)c3ccccc23)cc1 [Comparative Compound 4c, 1-(3-tert-butyl-1-p-tolyl-1H-pyrazol-5-yl)-3-(4-(2-morpholinoethoxy)naphthalen-1-yl)urea.hydrochloride]
phospholipidosis judgement (U937 cells): positive
